From BigSolDB 2.1

COC(=O)[C@H](N)c1ccccc1.Cl
solubility (mole fraction)
Settings	in acetone	in ethanol	in ethyl acetate	in methanol	in toluene	in water
283.15 K	1.3e-05	0.015	3.9e-05	0.076	9e-06	0.045
293.15 K	3.6e-05	0.022	8.5e-05	0.081	1.5e-05	0.058
303.15 K	7.8e-05	0.028	0.00015	0.085	2.3e-05	0.068
313.15 K	0.00013	0.033	0.00021	0.09	3.3e-05	0.077
323.15 K	0.00018	0.037	0.00025	0.096	4.4e-05	0.086
333.15 K	0.00025	0.042	0.00029	0.1	5.6e-05	0.095
